The structures appear in SMILES notation. The source made the active and inactive calls.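 Rule for the calls: active = compounds whose fitted half-maximal concentration in the cell-protection dose series is at or below a set limit; inactive = the rest.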 Bounds are passed on as bounds.

This assay concerns H9c2 cardiomyocytes, 2-deoxyglucose stress, ATP luminescence, 2 h. Briefly: H9c2 cell survival under 2-deoxyglucose stress – uHTS hits, dose response (AID 588780).
Take `CCOC(=O)c1cc2c(=O)n3ccccc3nc2n(Cc2ccco2)c1=NC(=O)c1cccnc1`: the IC50 was 22.3 µM.
On to `CSc1nnc(NC(=O)c2cc3ccccc3oc2=O)s1`, for which the IC50 is > 79 µM (inactive).
Turning to `c1ccc(N2CCOCC2)c(Nc2nc3ccccc3n3cnnc23)c1`, the 50% inhibitory concentration (IC50) is 23.4 µM.
Regarding `C/C(=N/NC(=O)c1cccs1)c1cccc(NC(=O)C2CC2)c1`, the IC50 is > 79 µM (inactive).
As for `O=c1cc(-c2cccnc2)oc2c1ccc1ccccc12`, the IC50 was 12.6 µM.
The result for `Cc1nc(N2CCN(S(=O)(=O)c3cccc4nonc34)CC2)c2c3c(sc2n1)CCCC3` reads > 79 µM (inactive); that for `CC(OC(=O)c1cc(-c2cccnc2)nc2ccccc12)C(=O)Nc1ccc2ccccc2c1` (stereo not given), 11 µM.
For `Cc1cc(C)cc(C(=O)Nc2ccc(NC(=O)c3cccs3)cc2)c1`, the IC50 was > 79 µM (inactive).
Under `O=C(CSc1nnc(Cc2cccs2)n1CCc1ccccc1)N1CCCc2ccccc21` stands > 79 µM (inactive).
The result for `Cn1c(=O)[nH]c(=O)c2c1nc(Br)n2CC(O)COc1ccc(Cl)cc1` (stereo not given) reads 15.2 µM; that for `COc1ccc(-n2c(C)c(C(C)=O)c3cc(OC(C)=O)ccc32)cc1`, 25.2 µM; that for `COc1ccc2c(c1)C(=O)[C@@H](O)[C@H](c1ccc(OC)c(Br)c1)O2`, 5.76 µM.
As to `Cc1ccc(-c2n[nH]c(=O)c3ccccc23)cc1S(=O)(=O)Nc1ccccc1`, the IC50 was > 79 µM (inactive).
In the case of `CCOC(=O)C1=c2s/c(=C\c3ccncc3)c(=O)n2C(N)=C(C(=O)OC)C1c1ccncc1` (stereo not given), the IC50 was > 79 µM (inactive).
Consider `COc1cc(/C=N/NC(=O)c2ccncc2)ccc1OC(=O)c1ccccc1Cl`, for which the IC50 was > 79 µM (inactive).
As to `COCCN1Cc2cccc(C(=O)Nc3cccc(-c4nc5ccccc5[nH]4)c3)c2C1=O`, the IC50 was > 79 µM (inactive).
On to `Cc1ccc(S(=O)(=O)N2CCN(C(=O)c3cc(=O)[nH]c4ccccc34)CC2)c(C)c1`, for which the IC50 is 16.8 µM.
Under `O=C(NN=Cc1cccc([N+](=O)[O-])c1)c1cc(-c2cccnc2)nc2ccccc12` stands > 79 µM (inactive); under `CN(C)C(=O)c1ccc(-c2n[nH]c(=O)c3ccccc23)cc1`, > 79 µM (inactive); under `CCOc1ncccc1C(=O)Nc1cccc(-c2nc3cccnc3s2)c1`, > 79 µM (inactive).
For the molecule `c1ccc(CN2CCN(CCCNc3ccc4nnc(-c5ccccc5)n4n3)CC2)cc1`, the IC50 is 13.8 µM.
Turning to `Nc1c(C(=O)NC2CCCC2)c2nc3ccccc3nc2n1N`, the IC50 was > 79 µM (inactive).
Under `CN(CC(=O)Nc1ccccc1Br)C(=O)CCc1nc2ccccc2c(=O)[nH]1` stands > 79 µM (inactive); under `NNC(=O)c1cc2ccccc2cc1O`, > 79 µM (inactive); under `COc1ccc(Cl)cc1NC(=O)CN(C)C(=O)Cc1n[nH]c(=O)c2ccccc12`, > 79 µM (inactive).
The result for `Cc1cccc(NC(=O)c2oc3ccc(S(=O)(=O)N4CCOCC4)cc3c2C)c1C` reads > 79 µM (inactive); that for `CC(=O)c1cccc(NC(=O)C(C)OC(=O)CCc2nc3ccccc3c(=O)[nH]2)c1` (stereo not given), > 79 µM (inactive); that for `Cn1nc(-c2ccccc2F)c2cc(C(=O)Nc3ccc4c(c3)OCCO4)sc21`, > 79 µM (inactive).
For the molecule `COc1ccc(CNC(=O)c2ccc(Cn3nc(C)c([N+](=O)[O-])c3C)o2)cc1`, the IC50 was > 79 µM (inactive).
The result for `N#Cc1cnn2cc(-c3ncc(C(F)(F)F)cc3Cl)cnc12` reads 27.6 µM; that for `COC(=O)c1cc(NC(=O)c2cc3ccccc3o2)cc(C(=O)OC)c1`, 20.5 µM.
On to `O=C(Cn1[nH]c(=O)c2ccccc2c1=O)NC1CCCCCC1`, for which the IC50 was > 79 µM (inactive).
The result for `O=c1[nH]c(N2CCN(c3ccccc3)CC2)nc2c1CCCC2` reads > 79 µM (inactive).
The result for `COc1cccc(NC(=O)CN(C)C(=O)Cc2n[nH]c(=O)c3ccccc23)c1` reads > 79 µM (inactive).
The result for `COc1cccc(C(=O)Nc2nnc(-c3ccc(Cl)cc3)o2)c1` reads 14.9 µM; that for `O=C(NCCc1c[nH]c2ccccc12)C(=O)NCC(c1ccco1)N1CCN(c2ccccc2F)CC1` (stereo not given), > 79 µM (inactive); that for `COc1cc(/C=N/NC(=O)c2cccnc2)ccc1OCC(=O)Nc1ccccc1Cl`, > 79 µM (inactive).
In the case of `O=C(COc1ccc(Cl)cc1)NCc1n[nH]c(=O)c2ccccc12`, the IC50 is > 79 µM (inactive).
Under `C=CCOC(=O)C1=C[C@H](c2cn(C(C)=O)c3ccccc23)C[C@H](OCc2ccc(CO)cc2)O1` stands 17.9 µM; under `N#CC1(NC(=O)COC(=O)Cn2[nH]c(=O)c3ccccc3c2=O)CCCCC1`, > 79 µM (inactive); under `O=C(NC1CCCCC1)C(c1ccc2ncccc2c1)N(Cc1ccccc1)C(=O)c1ccc2c(c1)OCCO2` (stereo not given), 32 µM (inactive).
Turning to `COc1cc(NC(=O)c2cc3ccccc3cc2OC)ccc1NC(=O)c1cccs1`, the IC50 was > 79 µM (inactive).
Under `O=C(CCc1nc2ccccc2c(=O)[nH]1)N1CCN(c2ccc(F)cc2)CC1` stands > 79 µM (inactive); under `COc1ccccc1CN(C(=O)CNC(=O)c1ccco1)C(C(=O)NCC1CCCO1)c1ccccc1` (stereo not given), 11.6 µM.
The result for `COc1ccc(N(C(=O)c2cccc([N+](=O)[O-])c2)S(=O)(=O)c2cccs2)cc1` reads 13.4 µM; that for `O=C(COC(=O)Cc1n[nH]c(=O)c2ccccc12)Nc1ncc(Cl)cc1Cl`, > 79 µM (inactive); that for `NC(=O)c1ccccc1OCC(=O)Nc1cccnc1Cl`, > 79 µM (inactive).
The result for `O=C(CSc1nc2ccccc2o1)NCc1n[nH]c(=O)c2ccccc12` reads 13.9 µM; that for `CCOC(=O)Cc1csc(NC(=O)NC2(C(F)(F)F)Oc3ccccc3O2)n1`, 35.3 µM (inactive); that for `Cc1cc(-n2c(C)cc(C(=O)COc3ccc4ccc(=O)oc4c3)c2C)no1`, > 79 µM (inactive).
With `COc1ccc(/C=N/NC(=O)c2sccc2OCc2ccc(F)cc2)cc1OC`, the IC50 is 15.4 µM.
Under `COc1ccc(OC)c(Nc2nc(N)c([N+](=O)[O-])c(N3CCOCC3)n2)c1` stands 20.9 µM; under `CC(=O)Nc1cc(-c2cccc(C(=O)N(C)C)c2)cn2c(-c3ccc(C(C)=O)cc3)cnc12`, 15.1 µM.
The result for `CC1(NC(=O)CCc2nc3ccccc3c(=O)[nH]2)CCS(=O)(=O)C1` (stereo not given) reads > 79 µM (inactive).
Under `O=c1[nH]nc(Cc2ccccc2)c2ccccc12` stands > 79 µM (inactive); under `O=C/C(=C\Nc1ccccn1)c1nc2cc(Cl)ccc2o1`, > 79 µM (inactive).
As for `Cc1nn(-c2ccccc2)nc1C(=O)Nc1cccc(C(=O)NC2CC2)c1`, the IC50 was > 79 µM (inactive).
Take `O=C(Cn1[nH]c(=O)c2ccccc2c1=O)OCC(=O)N(Cc1ccccc1)Cc1ccccc1`: the IC50 was > 79 µM (inactive).
Under `COc1ccccc1NS(=O)(=O)c1cc(NC(=O)Cc2n[nH]c(=O)c3ccccc23)ccc1Cl` stands 24.5 µM; under `Cc1cnc(C=O)c2cccc([N+](=O)[O-])c12`, 44.6 µM (inactive); under `O=C(Nc1ccc(CN2CCOCC2)cc1)c1ccc(-c2cccc([N+](=O)[O-])c2)o1`, > 79 µM (inactive).
In the case of `O=C1C=C(N2CCOCC2)c2cccc3cccc1c23`, the IC50 is > 79 µM (inactive).
`O=C(N/N=C\c1ccccn1)c1cccc(C(=O)N/N=C\c2ccccn2)n1`: the IC50 is 36 µM (inactive).
Under `COc1cccc(C(c2nnnn2Cc2ccccc2)N2CCN(C3CCCC3)CC2)c1OC` (stereo not given) stands 35.5 µM (inactive); under `O=C(COc1ccccc1F)Nc1nc(-c2ccccn2)cs1`, > 79 µM (inactive).
Under `COc1ccc(CCn2c(Br)nc3c2c(=O)[nH]c(=O)n3C)cc1` stands > 79 µM (inactive); under `C[C@@H](OC(=O)c1[nH]cnc1C(=O)NCc1ccc(CNC(=O)OC(C)(C)C)cc1)c1ccccc1`, > 79 µM (inactive); under `CCn1c(O)c(/C=N/N=C2CCCC2)c2ccc(C3=NNC(=O)CC3)cc21`, > 79 µM (inactive).
Consider `O=C(NCC1CCCO1)C(c1ccc(F)cc1)N(C(=O)Cn1nnc(-c2ccc(F)cc2)n1)c1cccc(O)c1` (stereo not given), for which the IC50 is 13.1 µM.
As to `Cc1cc2[nH]c(=O)c3ccccc3n2n1`, the IC50 was > 79 µM (inactive).
Under `CC(C)CCN(C(=O)CNC(=O)c1ccco1)C(C(=O)NC1CCCCC1)c1ccco1` (stereo not given) stands 37.5 µM (inactive); under `Cc1cccc(-n2[nH]c(C)c(C=Nc3ccc4[nH]c(=O)[nH]c4c3)c2=O)c1`, > 79 µM (inactive).
The result for `O=C(CCc1nc2ccccc2c(=O)[nH]1)Nc1ccc(N2CCCCC2)cc1` reads 19.8 µM.
Under `Cn1c(=O)c2[nH]c(NN=Cc3ccc(Br)cc3)nc2n(C)c1=O` stands > 79 µM (inactive).
Regarding `Cc1ccc2[nH]c(=O)c(CN(Cc3ccco3)S(=O)(=O)c3c(C)ccc4nsnc34)cc2c1`, the IC50 is 29.7 µM.
In the case of `CCn1c(=O)cc(OCC(=O)Nc2ccccc2C#N)c2ccccc21`, the IC50 was > 79 µM (inactive).
The result for `CCOC(=O)C1=C(C)NC(C)=C(C(=O)OCC)C1C(=O)OCC(=O)NC1CCCCC1` reads 6.02 µM; that for `COc1ccccc1C(=O)NCC(=O)N/N=C/c1cc(Br)ccc1OC(=O)/C=C\c1ccco1`, > 79 µM (inactive).
Consider `COc1cc(OC)cc(C(=O)Nc2ccc(C(=O)Nc3ccccc3OC)cc2)c1`, for which the 50% inhibitory concentration (IC50) was 15.9 µM.
The result for `COc1cccc(C(=O)Nc2c(C(N)=O)oc3ccccc23)c1` reads > 79 µM (inactive); that for `Cc1sc2nc(NCCO)[nH]c(=O)c2c1C`, > 79 µM (inactive).
The result for `Cc1ccc(C)c(NC(=O)C(Sc2ncnc3ccccc23)c2ccccc2)c1` (stereo not given) reads > 79 µM (inactive); that for `O=C(Cn1[nH]c(=O)c2ccccc2c1=O)N1CCN(S(=O)(=O)c2ccc(Cl)cc2)CC1`, > 79 µM (inactive); that for `Cc1ccc(C)c(NC(=O)C(Sc2nc3ccccc3c(=O)n2CC(C)C)c2ccccc2)c1` (stereo not given), > 79 µM (inactive).
On to `O=C(C[C@@H]1C/C=C/CC[C@@H](Cc2ccc(F)cc2)C(=O)O[C@@H](c2ccccc2)CNC1=O)NCCO`, for which the IC50 was 15.1 µM.
